In the Kinase Knowledgebase extract (Sharma et al. 2016):
Converted amounts (≈) assume the structure as drawn.

What was measured:
EGFR (human) [1] = molecular target: EGFR (human) (UniProt P00533); settings: a2780ddp
EGFR (human) [2] = molecular target: EGFR (human) (UniProt P00533); settings: sk-br-3
EGFR (human) [3] = molecular target: EGFR (human) (UniProt P00533); settings: 3t3
EGFR (human) [4] = molecular target: EGFR (human) (UniProt P00533); settings: a2780
EGFR (human) [5] = molecular target: EGFR (human) (UniProt P00533); settings: mda435
EGFR (human) [6] = molecular target: EGFR (human) (UniProt P00533); settings: a431
EGFR = EGFR (UniProt P00533)
EGFR, sequence (P00533 whole entry, looked up): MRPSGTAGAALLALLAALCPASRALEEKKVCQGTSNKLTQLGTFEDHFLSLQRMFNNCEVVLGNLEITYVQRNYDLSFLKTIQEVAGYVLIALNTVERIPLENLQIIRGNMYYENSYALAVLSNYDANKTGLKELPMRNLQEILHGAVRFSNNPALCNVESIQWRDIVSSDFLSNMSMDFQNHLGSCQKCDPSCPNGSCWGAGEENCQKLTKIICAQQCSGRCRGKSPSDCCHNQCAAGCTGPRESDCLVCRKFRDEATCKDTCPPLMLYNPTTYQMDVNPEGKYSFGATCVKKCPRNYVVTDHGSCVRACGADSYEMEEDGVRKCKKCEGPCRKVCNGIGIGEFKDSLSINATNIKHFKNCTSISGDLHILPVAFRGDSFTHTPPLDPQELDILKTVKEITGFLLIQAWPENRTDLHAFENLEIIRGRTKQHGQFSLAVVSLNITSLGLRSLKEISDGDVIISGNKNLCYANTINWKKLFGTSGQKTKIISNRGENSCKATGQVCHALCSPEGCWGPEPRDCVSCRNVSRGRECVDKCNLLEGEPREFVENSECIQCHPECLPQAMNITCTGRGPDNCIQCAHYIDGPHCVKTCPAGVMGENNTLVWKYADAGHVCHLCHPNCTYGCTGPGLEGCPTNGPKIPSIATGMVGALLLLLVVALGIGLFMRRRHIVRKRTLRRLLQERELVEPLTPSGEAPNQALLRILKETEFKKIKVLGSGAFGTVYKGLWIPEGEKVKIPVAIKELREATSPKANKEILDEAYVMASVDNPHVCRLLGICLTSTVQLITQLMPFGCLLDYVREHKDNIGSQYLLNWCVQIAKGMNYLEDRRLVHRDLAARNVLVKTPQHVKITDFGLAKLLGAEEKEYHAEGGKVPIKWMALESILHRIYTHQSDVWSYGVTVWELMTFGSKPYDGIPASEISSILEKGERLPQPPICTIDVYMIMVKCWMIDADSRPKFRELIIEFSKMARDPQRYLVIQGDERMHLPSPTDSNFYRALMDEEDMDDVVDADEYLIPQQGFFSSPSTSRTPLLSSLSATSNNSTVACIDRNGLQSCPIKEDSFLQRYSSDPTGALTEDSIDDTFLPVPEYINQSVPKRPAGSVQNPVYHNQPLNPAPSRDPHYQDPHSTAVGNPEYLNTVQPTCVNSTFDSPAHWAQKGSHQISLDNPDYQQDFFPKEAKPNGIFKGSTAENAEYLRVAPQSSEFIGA

EGFR (human), sequence (P00533 whole entry, looked up): as above

Question: Which results are given for `N#Cc1cnc2cnc(NCCN3CCOCC3)cc2c1Nc1cccc(Br)c1`?
Answer: IC50 (EGFR (human) [1]): 0.8 µg/mL (≈ 1.76 µM); IC50 (EGFR (human) [2]): 0.4 µg/mL (≈ 0.882 µM)

Question: Which IC50 (EGFR (human) [3]) does the source give for `CN(C)C/C=C/C(=O)Nc1cc2c(Nc3cccc(Br)c3)c(C#N)cnc2cn1` here?
Answer: 0.272 to 0.373 µg/mL (≈ 0.602 to 0.826 µM)

Question: How did the IC50 (EGFR (human) [4]) turn out when `CC#CC(=O)Nc1cc2c(Nc3cccc(Br)c3)c(C#N)cnc2cn1` was run?
Answer: 0.06 µg/mL (≈ 0.148 µM)

Question: What does the source list for `CNc1cc2c(Nc3cccc(Br)c3)c(C#N)cnc2cn1`?
Answer: IC50 (EGFR (human) [1]): 0.43 to 2.25 µg/mL (≈ 1.21 to 6.34 µM); IC50 (EGFR (human) [5]): 0.98 to 3.94 µg/mL (≈ 2.77 to 11.1 µM); IC50 (EGFR (human) [4]): 0.74 to 2.36 µg/mL (≈ 2.09 to 6.67 µM); IC50 (EGFR (human) [6]): 0.209 to 0.31 µg/mL (≈ 0.59 to 0.875 µM)

Question: Which IC50 (EGFR) does the source give for `CCOc1ccc2ncc(C#N)c(Nc3cccc(Br)c3)c2n1` here?
Answer: > 10000 nM

Question: Which IC50 (EGFR) does the source give for `COc1ccc(CNc2cc3c(Nc4cccc(Br)c4)c(C#N)cnc3cn2)cc1` here?
Answer: > 100 nM

Question: How did the IC50 (EGFR) turn out when `CN(C)C/C=C/C(=O)Nc1cnc2ncc(C#N)c(Nc3cccc(Br)c3)c2c1` was run?
Answer: 800 nM
